Data as given in BigSolDB 2.1.

Nc1ccc(Cl)nn1
Conditions	solubility (mole fraction)
in DMF, 298.45 K	0.0353
in DMF, 303.35 K	0.0401
in DMF, 308.15 K	0.0455
in DMF, 313.35 K	0.0522
in DMF, 318.15 K	0.0592
in DMF, 323.25 K	0.0647
in DMF, 328.35 K	0.0705
in DMF, 333.45 K	0.0768
in DMF, 337.95 K	0.083
in DMF, 343.05 K	0.0904
in acetone, 298.15 K	0.00338
in acetone, 303.15 K	0.00423
in acetone, 308.15 K	0.00513
in acetone, 313.25 K	0.00597
in acetone, 318.15 K	0.00682
in acetone, 323.15 K	0.00791
in acetone, 328.15 K	0.00871
in cyclohexanone, 298.25 K	0.00455
in cyclohexanone, 303.25 K	0.0053
in cyclohexanone, 308.15 K	0.00643
in cyclohexanone, 313.15 K	0.00782
in cyclohexanone, 318.25 K	0.00889
in cyclohexanone, 323.05 K	0.0107
in cyclohexanone, 328.15 K	0.0125
in cyclohexanone, 333.15 K	0.015
in cyclohexanone, 338.25 K	0.0174
in cyclohexanone, 343.15 K	0.02
in ethanol, 298.15 K	0.00206
in ethanol, 303.25 K	0.00271
in ethanol, 308.15 K	0.00318
in ethanol, 313.15 K	0.00405
in ethanol, 318.15 K	0.005
in ethanol, 323.15 K	0.006
in ethanol, 328.15 K	0.00702
in ethanol, 333.15 K	0.00848
in ethanol, 338.15 K	0.00994
in ethanol, 342.85 K	0.0113
in ethyl acetate, 298.45 K	0.00133
in ethyl acetate, 303.35 K	0.00166
in ethyl acetate, 308.15 K	0.00194
in ethyl acetate, 313.15 K	0.00227
in ethyl acetate, 318.25 K	0.00263
in ethyl acetate, 323.25 K	0.00319
in ethyl acetate, 328.15 K	0.00358
in ethyl acetate, 333.15 K	0.00413
in ethyl acetate, 338.35 K	0.00479
in ethyl acetate, 343.15 K	0.0053
in methanol, 298.15 K	0.00388
in methanol, 303.35 K	0.00444
in methanol, 308.05 K	0.00525
in methanol, 313.15 K	0.00605
in methanol, 318.15 K	0.00721
in methanol, 322.95 K	0.00824
in methanol, 328.55 K	0.00936
in methanol, 332.45 K	0.0107
in n-butanol, 296.55 K	0.00171
in n-butanol, 302.95 K	0.00224
in n-butanol, 309.85 K	0.00315
in n-butanol, 313.05 K	0.00357
in n-butanol, 318.25 K	0.00428
in n-butanol, 322.95 K	0.00498
in n-butanol, 328.15 K	0.00629
in n-butanol, 333.45 K	0.00741
in n-butanol, 338.35 K	0.00871
in n-butanol, 343.15 K	0.0102
in toluene, 298.15 K	5.02e-05
in toluene, 303.25 K	6.73e-05
in toluene, 308.15 K	8.17e-05
in toluene, 313.35 K	0.000116
in toluene, 318.15 K	0.000155
in toluene, 323.25 K	0.000202
in toluene, 328.35 K	0.00025
in toluene, 333.15 K	0.000293
in toluene, 338.35 K	0.000352
in toluene, 343.55 K	0.000454
